From the NIST ThermoML archive (doi:10.1016/j.jct.2012.12.007)

Assay: xn = mol fraction of the nth substance listed
Settings: 101.3 kPa, Liquid; for speed of sound: Sing-around technique in a fixed-path interferometer; for mass density: Vibrating tube method

CCOCCOCCOCC [diethylene glycol diethyl ether] + CCCCCCCCCCO
Settings	mass density [kg/m3]	speed of sound [m/s]
293.15 K, x2 = 0.0632	901.86	1267.1
293.15 K, x2 = 0.1084	897.94	1272.6
293.15 K, x2 = 0.2052	889.79	1284.5
293.15 K, x2 = 0.294	882.49	1295.5
293.15 K, x2 = 0.393	874.57	1308.1
293.15 K, x2 = 0.4943	866.66	1321.4
293.15 K, x2 = 0.543	862.92	1327.9
293.15 K, x2 = 0.5932	859.11	1334.7
293.15 K, x2 = 0.6872	852.12	1348.1
293.15 K, x2 = 0.7863	844.92	1363
293.15 K, x2 = 0.8872	837.76	1378.8
293.15 K, x2 = 0.9441	833.82	1388.1
298.15 K, x2 = 0.0605	897.98	1247.8
298.15 K, x2 = 0.111	893.68	1254.1
298.15 K, x2 = 0.1588	889.69	1260.1
298.15 K, x2 = 0.2062	885.79	1266.1
298.15 K, x2 = 0.302	878.08	1278.3
298.15 K, x2 = 0.3947	870.77	1290.4
298.15 K, x2 = 0.504	862.39	1305
298.15 K, x2 = 0.592	855.8	1317.3
298.15 K, x2 = 0.6553	851.16	1326.4
298.15 K, x2 = 0.7443	844.72	1339.5
298.15 K, x2 = 0.7923	841.32	1347
298.15 K, x2 = 0.8362	838.23	1353.8
298.15 K, x2 = 0.8836	834.93	1361.4
298.15 K, x2 = 0.94	831.05	1370.4
303.15 K, x2 = 0.0605	893	1229.6
303.15 K, x2 = 0.1016	889.54	1234.8
303.15 K, x2 = 0.154	885.23	1241.6
303.15 K, x2 = 0.2064	880.99	1248.3
303.15 K, x2 = 0.2953	873.94	1260
303.15 K, x2 = 0.3846	867.02	1271.7
303.15 K, x2 = 0.5006	858.29	1287.6
303.15 K, x2 = 0.5369	855.6	1292.7
303.15 K, x2 = 0.6486	847.46	1308.7
303.15 K, x2 = 0.7409	840.9	1322.6
303.15 K, x2 = 0.7915	837.36	1330.4
303.15 K, x2 = 0.8318	834.56	1336.7
303.15 K, x2 = 0.8856	830.89	1345.4
303.15 K, x2 = 0.9364	827.44	1353.5

CCOCCOCCOCC [diethylene glycol diethyl ether] + CCCCO
Settings	mass density [kg/m3]	speed of sound [m/s]
293.15 K, x2 = 0.1284	901.3	1262.2
293.15 K, x2 = 0.2205	896.11	1263.3
293.15 K, x2 = 0.319	889.85	1264.1
293.15 K, x2 = 0.3623	886.86	1264.3
293.15 K, x2 = 0.4157	882.92	1264.5
293.15 K, x2 = 0.4529	879.96	1264.4
293.15 K, x2 = 0.4963	876.35	1264.4
293.15 K, x2 = 0.5481	871.71	1264.3
293.15 K, x2 = 0.6523	861.3	1263.6
293.15 K, x2 = 0.7018	855.73	1263.3
293.15 K, x2 = 0.7934	844.15	1262.1
293.15 K, x2 = 0.8942	829.14	1260.2
293.15 K, x2 = 0.9397	821.36	1258.9
298.15 K, x2 = 0.1245	896.77	1242.5
298.15 K, x2 = 0.2149	891.76	1243.8
298.15 K, x2 = 0.3175	885.38	1244.9
298.15 K, x2 = 0.4078	879	1245.5
298.15 K, x2 = 0.4543	875.4	1245.6
298.15 K, x2 = 0.5047	871.25	1245.7
298.15 K, x2 = 0.5543	866.84	1245.7
298.15 K, x2 = 0.6137	861.13	1245.5
298.15 K, x2 = 0.6973	852.18	1245.3
298.15 K, x2 = 0.7951	840.07	1244.5
298.15 K, x2 = 0.8466	832.8	1243.9
298.15 K, x2 = 0.9449	816.86	1241.7
303.15 K, x2 = 0.0738	894.47	1223.5
303.15 K, x2 = 0.1419	890.96	1224.8
303.15 K, x2 = 0.218	886.73	1225.9
303.15 K, x2 = 0.302	881.57	1227
303.15 K, x2 = 0.3764	876.51	1227.7
303.15 K, x2 = 0.5002	866.9	1228.3
303.15 K, x2 = 0.5541	862.16	1228.4
303.15 K, x2 = 0.6056	857.29	1228.5
303.15 K, x2 = 0.6997	847.32	1228.4
303.15 K, x2 = 0.7961	835.44	1227.9
303.15 K, x2 = 0.8493	827.96	1227.4
303.15 K, x2 = 0.8896	821.8	1226.8
303.15 K, x2 = 0.9431	812.86	1225.8
